Measured values published in ChEMBL document CHEMBL3046231 (Med Chem Res, 2008).

Assays:
Mus musculus [1] = assay: Toxicity in Mus musculus albino (mouse) assessed as effect on gross behavior at 75 umole/kg, ip; type: organism-based; settings: in vivo
Mus musculus [2] = assay: Antidepressant activity in Mus musculus albino (mouse) assessed as reversal of reserpine-induced ptosis at 75 umole/kg, ip after 3 hr by chi-square test relative to control; type: functional
Mus musculus [3] = assay: Anorexigenic activity in Mus musculus albino (mouse) assessed as reduction of milk intake at 75 umole/kg, ip relative to control; type: functional; parameters: scale not given: the % may be the effect or the level left

Row | Structure (SMILES) | Activity (Mus musculus [1]) | Activity (Mus musculus [2]) | Activity (Mus musculus [3])
1 | COc1cc(NC(=S)N(C)CCC(Oc2ccc(C(F)(F)F)cc2)c2ccccc2)cc(OC)c1OC (configuration not stated) | Non-toxic | 100% | 
2 | CN(CCC(Oc1ccc(C(F)(F)F)cc1)c1ccccc1)C(=S)NC(C)(C)C (configuration not stated) | Non-toxic | 100% | 
3 | COc1ccc(NC(=S)N(C)CCC(Oc2ccc(C(F)(F)F)cc2)c2ccccc2)cc1 (configuration not stated) | Non-toxic | 100% | 
4 | CC(C)NC(=S)N(C)CCC(Oc1ccc(C(F)(F)F)cc1)c1ccccc1 (configuration not stated) | Non-toxic | 100% | 
5 | CN(C[C@@H]1CCc2ccccc2[C@@H]1Oc1ccc(C(F)(F)F)cc1)C(=S)NCCc1ccccc1 | Non-toxic | 100% | 
6 | CN(C[C@@H]1CCc2ccccc2[C@@H]1Oc1ccc(C(F)(F)F)cc1)C(=O)NC1CCCCC1 | Non-toxic | 100% | 
7 | CN(C[C@@H]1CCc2ccccc2[C@@H]1Oc1ccc(C(F)(F)F)cc1)C(=O)NCCc1ccccc1 | Non-toxic | 100% | 
8 | CC1CCC(NC(=O)N(C)C[C@@H]2CCc3ccccc3[C@@H]2Oc2ccc(C(F)(F)F)cc2)CC1 (some centres not stated) | Non-toxic | 80% | 
9 | CN(CCC(Oc1ccc(C(F)(F)F)cc1)c1ccccc1)C(=O)NC1CCCCC1 (configuration not stated) | Non-toxic | 80% | 
10 | CN(CCC(Oc1ccc(C(F)(F)F)cc1)c1ccccc1)C(=S)NCCc1ccccc1 (configuration not stated) | Non-toxic | 40% | 
11 | CN(CCC(Oc1ccc(C(F)(F)F)cc1)c1ccccc1)C(=S)NCc1ccccc1 (configuration not stated) | Non-toxic | 100% | 
12 | Cc1ccc(NC(=S)N(C)CCC(Oc2ccc(C(F)(F)F)cc2)c2ccccc2)cc1 (configuration not stated) | Non-toxic | 80% | 
13 | CN(CCC(Oc1ccc(C(F)(F)F)cc1)c1ccccc1)C(=O)NCCc1ccccc1 (configuration not stated) | Non-toxic | 100% | 
14 | CN(CCC(Oc1ccc(C(F)(F)F)cc1)c1ccccc1)C(=S)NC1CCCCC1 (configuration not stated) | Non-toxic | 100% | 
15 | CN(CCC(Oc1ccc(C(F)(F)F)cc1)c1ccccc1)C(=S)Nc1ccccc1 (configuration not stated) | Non-toxic | 100% | 
16 | CN(CCC(Oc1ccc(C(F)(F)F)cc1)c1ccccc1)C(=S)NC(=O)c1ccccc1 (configuration not stated) | Non-toxic | 100% | 
17 | CC1CCC(NC(=S)N(C)CCC(Oc2ccc(C(F)(F)F)cc2)c2ccccc2)CC1 (configuration not stated) | Non-toxic | 60% | 
18 | CNCCC(Oc1ccc(C(F)(F)F)cc1)c1ccccc1 (configuration not stated) [FLUOXETINE] |  | 0% | 78.49%
19 | COC(=O)[C@H]1[C@H]2C[C@@H]3c4[nH]c5cc(OC)ccc5c4CCN3C[C@H]2C[C@@H](OC(=O)c2cc(OC)c(OC)c(OC)c2)[C@@H]1OC [RESERPINE] |  | 100% | 
